Test results: patent US7745390B2, “Antimicrobial peptides” (priority 2005, dated 2010)
Bridge positions count the residues as written; N and C are the ends. Square brackets hold non-standard residues; d marks the D form. Ends that are not written are not given here. Peptide text beside a SMILES is read from it.

Tests used:
Salmonella = type: cell-based, S. typhimurium; details: pH 7.2
Method: (§1) The experiments described above characterizing the activity of granulysin peptides G1-G18 relied on counting bacterial colonies on plates. This assay is quite labor intensive and would not allow evaluation of many different compounds on a number of different microbes. Therefore, we optimized an assay in which the entire procedure could be completed in a single microtiter well. Briefly, peptides are diluted in 10 mM phosphate buffer, pH 7.2 supplemented with 0.03% LB (J. Sambrook, D. W. Russell, Molecular Cloning: A Laboratory Manual (Cold Spring Harbor Laboratory Press, New York, ed. 3, 2001) pg. A2.2, Retrieved from http://openwetware.org/wiki/LB) and 25 μl is added to microtiter wells. Bacteria (25 μl) are added (˜5×10^6 colony forming units/ml) in the same buffer. After a 3-hour incubation at 37° C., 150 μl of LB is added and the plates are incubated overnight. The OD at 600 nm is read on an ELISA plate reader. The minimum inhibitory concentration (MIC) is the lowest concentration allowing no bacterial growth. The IC50 is the concentration of peptide that results in 50% growth compared to the medium.
(§2) We now describe additional peptides and their activity. The peptides have been designed, synthesized, and have been tested for lysis of E. coli and S. typhimurium (gram negative bacteria), B. cereus (gram positive bacterium). Results are shown in Table 2 along with the amino acid sequence of the peptide. Changes from the naturally occurring sequence are underlined. In general, the desired result is lysis of bacteria at low concentration (<1 μM).
(§3) In Table 2, Columns 2-7 are the MIC and IC50 (concentration required for 50% inhibition of growth) for each organism (E. coli, Salmonella, and B. cereus). The MIC (minimum inhibitory concentration) was determined as described above, in a multiwell plate assay. […] L-isomer amino acids are designated by capital letters while D-isomer amino acids are designated by lower case letters.

E. coli DH5a = type: cell-based; details: DH5a, pH 7.2
Method: as §1, §2, §3

B. cereus = type: cell-based; details: pH 7.2
Method: as §1, §2, §3

Row | Compound | IC50 (Salmonella) [nM] | Salmonella MIC (Salmonella) [µM] | E. coli DH5a MIC (E. coli DH5a) [µM] | IC50 (E. coli DH5a) [nM] | B. cereus MIC (B. cereus) [µM] | IC50 (B. cereus) [nM]
1 | QRSVSRAPTRVSRTGRSRW [Peptide G13.8, QRSVSRAPTRVSRTGRSRW] | > 10000 | >10 | 5.7 | 3300 | >10 | 7700
2 | RRVSRRFMRRSRWARKGSGQMVQQSSQQFQ [Peptide G11.41] | 3250 | 5.6 | 3.5 | 960 | 1.38 | 890
3 | GRARWRDVARRFMRR [Peptide G14.9, GRARWRDVARRFMRR] | 440 | 0.65 | 1.38 | 810 | 1.37 | 850
4 | RRLLRRLLRR [Peptide G11.20, RRLLRRLLRR] | 7690 | >10 | >10 | 7700 | >10 | > 10000
5 | QRRSSRFMRRYQRVVPRGLV [Peptide G12.24] | 700 | 1.4 | 0.8 | 420 | 0.8 | 420
6 | QRSVSNAATRVCRT [Peptide G10, QRSVSNAATRVCRT, reference compound] | > 10000 | >10 | >10 | > 10000 | >10 | > 10000
7 | QRSVSRAATRVSRTGRSRW [Peptide G13.2, QRSVSRAATRVSRTGRSRW] | 7300 | >10 | 1.37 | 850 | 5.6 | 3400
8 | RRVSRRFMRRSGSGSGSGQQMVQQSGQQFS [Peptide G11.40] | > 10000 | >10 | >10 | 3280 | >10 | > 10000
9 | CSCC[C@@H]1NC(=O)[C@H](Cc2ccccc2)NC(=O)[C@H](CCCCN)NC(=O)[C@H](CCCCN)NC(=O)[C@H](CO)NC(=O)[C@H](C(C)C)NC(=O)[C@H](CCCCN)NC(=O)[C@H](CCCCN)NC(=O)[C@@H](N)CSSC[C@@H](C(N)=O)NC(=O)[C@H](CCCCN)NC(=O)[C@H](CCCCN)NC(=O)[C@H](CCSC)NC(=O)[C@H](Cc2ccccc2)NC(=O)[C@H](CCCCN)NC(=O)[C@H](CCCCN)NC(=O)[C@H](CO)NC(=O)[C@H](C(C)C)NC(=O)[C@H](CCCCN)NC(=O)[C@H](CCCCN)NC(=O)[C@H](CO)NC(=O)CNC(=O)[C@H](CCCCN)NC(=O)[C@H](CCCCN)NC1=O [G11.31 CYC] (H-CKKVSKKFMKKGSKKVSKKFMKKC-NH2; disulfide 1-24; N-terminus assumed) | 410 | 0.7 | 0.61 | 420 | 0.7 | 400
10 | RDVCRNFMRR [Peptide G11, RDVCRNFMRR, reference compound] | > 10000 | >10 | >10 | > 10000 | >10 | > 10000
11 | KKVSKKFMKKGSKKVSKKFMKKGSKKVSKKFMKK [Peptide G11.25] | 100 | 0.15 | 0.15 | 100 | 0.15 | 100
12 | GRSRWRDVSRNFMRR [Peptide G14.1, GRSRWRDVSRNFMRR] | 1750 | 2.8 | 1.37 | 890 | >10 | 7660
13 | QKSVSKAATKVSKTGKSKW [Peptide G13.9, QKSVSKAATKVSKTGKSKW] | > 10000 | >10 | 1.45 | 890 | >10 | 7700
14 | CSCC[C@@H](NC(=O)[C@@H](Cc1ccccc1)NC(=O)[C@@H](CCCCN)NC(=O)[C@@H](CCCCN)NC(=O)[C@@H](CO)NC(=O)[C@H](NC(=O)[C@@H](CCCCN)NC(=O)[C@@H](CCCCN)NC(=O)[C@@H](CO)NC(=O)CNC(=O)[C@@H](CCCCN)NC(=O)[C@@H](CCCCN)NC(=O)[C@@H](CCSC)NC(=O)[C@@H](Cc1ccccc1)NC(=O)[C@@H](CCCCN)NC(=O)[C@@H](CCCCN)NC(=O)[C@@H](CO)NC(=O)[C@H](NC(=O)[C@@H](CCCCN)NC(=O)[C@H](N)CCCCN)C(C)C)C(C)C)C(=O)N[C@H](CCCCN)C(=O)N[C@H](CCCCN)C(=O)O [Peptide G11.54, kkvskkfmkkgskkvskkfmkk] | > 10000 | >10 | >10 | 8250 | 0.35 | 210
15 | FDTPRRVSRRFMRRLGH [Peptide G11.43, FDTPRRVSRRFMRRLGH] | 3000 | >10 | 0.75 | 420 | 0.75 | 210
16 | RRPSRRFPRR [Peptide G11.37, RRPSRRFPRR] | 1680 | 2.9 | 2.4 | 450 | >10 | > 10000
17 | CSCC[C@@H](NC(=O)[C@@H](Cc1ccccc1)NC(=O)[C@@H](CCCNC(=N)N)NC(=O)[C@@H](CCCNC(=N)N)NC(=O)[C@@H](CO)NC(=O)[C@H](NC(=O)[C@@H](CCCNC(=N)N)NC(=O)[C@H](N)CCCNC(=N)N)C(C)C)C(=O)N[C@H](CCCNC(=N)N)C(=O)N[C@H](CCCNC(=N)N)C(=O)O [Peptide G11.24, rrvsrrfmrr] (H-[dR][dR][dV][dS][dR][dR][dF][dM][dR][dR]-OH; N-terminus and C-terminus assumed) | 850 | 1.4 | 1.4 | 850 | >10 | > 10000
18 | SDVARRFMRRQSRVIRRLV [Peptide G12.22, SDVARRFMRRQSRVIRRLV] | 890 | 1.39 | 1.38 | 870 | 5.7 | 3500
19 | QRSVSRPPTRVSRTGRARW [Peptide G13.12, QRSVSRPPTRVSRTGRARW] | > 10000 | >10 | 5.65 | 1750 | >10 | > 10000
20 | CC[C@H](C)[C@H](NC(=O)[C@@H](NC(=O)[C@@H](CCCNC(=N)N)NC(=O)[C@H](CO)NC(=O)[C@H](CCC(N)=O)NC(=O)[C@@H](CCCNC(=N)N)NC(=O)[C@@H](CCCNC(=N)N)NC(=O)[C@H](CCSC)NC(=O)[C@H](Cc1ccccc1)NC(=O)[C@@H](CCCNC(=N)N)NC(=O)[C@H](CCCNC(=N)N)NC(=O)[C@H](C)NC(=O)[C@H](NC(=O)[C@H](CC(=O)O)NC(=O)[C@@H](N)CCCNC(=N)N)C(C)C)C(C)C)C(=O)N[C@@H](CO)C(=O)N[C@H](CCCNC(=N)N)C(=O)N[C@@H](CC(C)C)C(=O)N[C@H](C(=O)O)C(C)C [Peptide G12.16, RDvARrFMrrQSrVISrLV] (H-RD[dV]AR[dR]FM[dR][dR]QS[dR]VIS[dR]LV-OH; N-terminus and C-terminus assumed) | 1000 | 2.8 | 1.39 | 720 | 5.6 | 3510
21 | GRSGWRDVSRNFRRG [Peptide G14.12, GRSGWRDVSRNFRRG] | > 10000 | >10 | >10 | 6750 | >10 | > 10000
22 | QRSVSNPPTRVSRPPRSRWRDVSRPPMRR [Peptide G8.16] | > 10000 | >10 | 0.7 | 400 | >10 | 7300
23 | GRSLWRDVSRNFMRR [Peptide G14.13, GRSLWRDVSRNFMRR] | 7600 | >10 | 5.6 | 1850 | >10 | > 10000
24 | RRVSRRFMRRGSRRVSRRFMRRGSRRVSRRFMRR [Peptide G11.10] | 210 | 0.35 | 0.35 | 210 | 0.35 | 210
25 | RRVSRRFMRRYRSRVIRGLV [Peptide G12.7] | 220 | 0.35 | 0.71 | 250 | 0.35 | 210
26 | QRSVSRAATRVSRTGRSNWRDVGRRFMRR [Peptide G8.15] | 410 | 0.7 | 0.8 | 450 | 0.7 | 450
